Test [1] concerns NRAS mutant melanoma cells. The test is described as follows: Telomere dysfunction-induced foci (TIF) assay, IF-FISH. The format is cell-based, Human. The note with it: WM3000 cells transduced with TERT shRNA, NAC 1 mM for 7 days. Here is the method:
NRAS mutant melanoma cells WM3000 were transduced with TERT shRNA and treated with NAC (mM) for 7 days. […] Representative images are shown. (scale bar=10 μm). Quantification of TIF positive cells is plotted in FIG. 13b. Cells were scored as TIF positive when three or more g-H2AX foci (green) were co-localizing with telomere foci (red). Data represent average of thirteen fields imaged +/−SD.
NRAS^mut melanoma cells were treated with 6-thio-dG for 6, 12 or 18 days. As presented in FIG. 15a, relative cell number was assessed by Crystal Violet assay and calculated relative to DMSO-treated cells. Data represent average of three independent experiments +/−SD. […] NRAS^mut cells were treated with 6-thio-dG for 7 days and telomere induced foci (TIF) was determined by indirect immunofluorescence combined with fluorescence in situ hybridization (FISH) (FIG. 15c). […] Quantification of TIF assay is plotted in FIG. 15d. Cells were scored as TIF positive when four or more γ-H2AX foci (green, center row of FIG. 15c labelled as γH2AX) were co-localizing with telomere foci (red, top row of FIG. 15c labelled as Telomeres). […] P values were calculated by unpaired Student's t-test.
For TIF analysis, indirect immunofluorescence (IF) combined with fluorescence in situ hybridization (FISH) was performed as previously described with some modifications. […] TIF were quantified from at least three independent experiments.

The subject of test [2] is NRAS mutant melanoma spheroids. The test is described as follows: 3D collagen-embedded tumor spheroids, Live/Dead staining. The note with it: 6-thio-dG 5 μM and Ganetespib 5 μM, day 7. The format is cell-based, Human. On the procedure: FIGS. 6a to 6e provide results showing that combining 6-thio-dG and Gamitrinib inhibits the growth of 3D melanoma spheroids and NRAS-mutant xenograft tumors. […] 4a to 4e. On day 7, spheroids were stained with Calcein AM (live cells; green) and EtBr (dead cells; red) and imaged using an inverted microscope (4X; scale bar=250 μm). […] P values were calculated using unpaired Student's t-test. *p<0.05, ** p<0.01, ***p<0.005, when comparing vehicle control vs. combination treatment groups. As presented in FIG. 6d, treatment was discontinued after 14 days, and mice were followed until tumor volume reached a preset volume (1500 mm^3). Kaplan Meier survival curves of mice treated for 14 days. p-values were calculated by Mantel-Cox log-rank test; *p<0.05, **p<0.01, ***p<0.005. Animal weight (grams) before treatment (Start of TX) and at the end of the study (End of TX) was assessed, recorded for every mouse enrolled in the study and plotted in FIG. 6e. Mean and SEM are depicted (n=7 mice/treatment group). Statistical significance was assessed by unpaired Student's t-test.
In FIG. 17a, NRAS^mut melanoma cells were treated with 6-thio-dG (1 μM) for 7 days total. At day 5, culture medium was replaced and cells were treated with 1 μM 6-thiodG plus 1 mM Phenformin for two more days. Percent cell death was determined by flow cytometry following staining of cells with Annexin V and Propidium iodide. […]

Test [3] concerns NRAS-WT/BRAF-WT melanoma cells. The test is described as follows: Cell death by Annexin V/PI flow cytometry. The note with it: 1 μM 6-thio-dG, 5 μM Gam, single agents or in combination. Format: cell-based, Human. Here is the method:
(§1) FIGS. 5a to 5e provide bar graphs showing that combination treatment with 6-Thio-dG and Gamitrinib (Gam) triggers death selectively in NRAS mutant tumor cells. NRAS-WT/BRAF-WT melanoma cells (FIG. 5a), NRAS-WT/BRAF-mut melanoma cells (FIG. 5b), NRAS mutant neuroblastoma cells (FIG. 5c), NRAS-WT/KRAS-mutant colon cancer cells (FIG. 5d), and NRAS-WT/KRAS-mutant lung cancer cells were treated with 1 μM 6-thio-dG for 5 days (FIG. 5e). At day 5, culture medium was replaced and cells treated with 1 μM 6-thio-dG plus 5 μM Gam for two more days. Cells were stained with Annexin V and PI and percent cell death was determined by FACS. Data represent average of three independent experiments +/−SEM; p values were calculated using un-paired Student's t-test; *p<0.05; **p<0.001.
(§2) Cells were seeded in 96-well plates and treated with drugs. After 6 days, cell viability was assessed following 6h incubation with […] Alamar Blue (ThermoFisherScientific, Philadelphia, Pa.) by measuring fluorescence using an EnVision Xcite Multilabel plate reader (Perkin Elmer, Waltham, Mass.). Cell death was determined by flow cytometry using PSVue-643 (Molecular Targeting Technologies) or Annexin V (640919, Biolegend, San Diego, Calif.) and Propidium Iodide (Sigma) staining. Samples were analyzed using a BD LSRII flow cytometer (BD Biosciences, San Jose, Calif.).

Test [4] has as its system BRAF mutant melanoma cells. The test can be described thus: Cell death by Annexin V/PI flow cytometry. The format is cell-based, Human. The note with it: 1 μM 6-thio-dG, 5 μM Gam, single agent or in combination. On the procedure:
as §1, §2

The test system of another test is SOD2. The note with it: Siegelin et al., 2011; cited from earlier work.
Test [5] has as its system prostate, breast and lung cancer, BRAF-V600E-mutant melanoma. The note with it: Chae et al., 2012; cited from earlier work.
Another test deals with KRAS mutant HCT116 cells. The test can be described thus: Cell death by Annexin V/PI flow cytometry. The note with it: 1 μM 6-thio-dG, 5 μM Gam. Format: cell-based. On the procedure:
as §1, §2

Test [6] has as its system NRAS mutant SKNAS neuroblastoma cells. The test can be described thus: Cell death by Annexin V/PI flow cytometry. Format: cell-based. The note with it: 1 μM 6-thio-dG, 5 μM Gam, single agents or in combination. On the procedure:
as §1, §2
(In general: In flow cytometry, cells or beads pass a laser one at a time.)

The next test concerns KRAS mutant A549 cells. The test is described as follows: Cell death by Annexin V/PI flow cytometry. Format: cell-based. The note with it: 1 μM 6-thio-dG, 5 μM Gam. Here is the method: as §1, §2
For the next test, the system named is NRAS mutant cells. The note with it: Chae et al., 2012; cited from earlier work.
Test [7] has as its system NRAS mutant melanoma cells. The test can be described thus: Cell death by flow cytometry (PSVue or Annexin V/PI). Format: cell-based, Human. The note with it: cells transduced with TERT shRNA, 7 days post infection 5 μM Gamitrinib for 48 h. Here is the method: FIGS. 2a to 2c show NRAS^mut melanoma cells (FIG. 2a), BRAF-V600E/NRAS mutant cells derived from melanoma patients resistant to BRAF/MEK inhibitors (FIG. 2b), or non-transformed melanocytes and fibroblasts (FIG. 2c) were treated with 6-thio-dG for 7 days. Cell viability was measured by Alamar Blue assay and calculated relative to DMSO-treated cells. […] Cell death was assessed by PSVUe staining. Percent of apoptotic cells is shown. […] Mean TRF length expressed as kilobase pairs is indicated at the bottom. […] FIG. 2g provides a bar graph showing that DNA damage was assessed by γH2AX staining. Data represent average from three independent experiments ±SEM. *p<0.05; **p<0.01; ***p<0.005 in unpaired Student's t-test. As presented in FIG. 2h, mice bearing established WM3000 or M93-047 NRAS^mut tumors were treated with vehicle control or 6-thio-dG (2.5 mg/kg i.p; q.d). Tumor volume was measured and average tumor volume (n=4) ±SEM was plotted vs. time.
FIGS. 3a to 3g provides graphs showing that telomere dysfunction enhances oxidative stress leading to upregulation of an antioxidant program. […] Mitochondrial superoxide production was measured by MitoSox Red fluorescence (FIGS. 3c, and 3d) and expressed as fluorescence relative to vector or DMSO controls. […] FIG. 3f provides a bar graph showing that SOD2 was silenced using shRNA. Transduced M93-047 cells were treated with DMSO or 1 μM of 6-thio-dG and cell death was assessed by Annexin V/PI straining. As presented in FIG. 3g, M93-047 cells were transduced with a SOD2 lentiviral construct or empty vector control (pLX304). Transduced cells were treated with increasing doses (1, 2.5 and 5 μM) of 6-thio-dG for 7 days and cell death was assessed. Data represent average from three independent experiments ±SEM. *p<0.05; **p<0.01; ***p<0.005 in unpaired Student's t-test.
FIGS. 4a to 4e provides bar graphs showing that induction of telomere and mitochondrial dysfunction triggers cell death in NRAS mutant melanoma. […] Cell death was assessed by Annexin V and PI staining. […] Cells were stained with Annexin V and PI and percent cell death was determined by flow cytometry. […] P values were calculated using unpaired Student's t-test; * p<0.05; *** p<0.005.
As presented in FIG. 16a, SOD2 was silenced using shRNA. Transduced WM3000 cells were treated with DMSO or 1 μM of 6-thio-dG and cell death was assessed by Annexin V/PI straining. […] Transduced cells were treated with increasing doses (1, 2.5 and 5 μM) of 6-thio-dG for 10 days and cell death was assessed. […]
In FIG. 17a, NRAS^mut melanoma cells were treated with 6-thio-dG (1 μM) for 7 days total. […] Percent cell death was determined by flow cytometry following staining of cells with Annexin V and Propidium iodide. […]

The conditions of test [8]: literature; cited from earlier work.
For test [9] the following is noted: literature; cited from earlier work. The source holds these as a separate data set.

With `CC(=O)N[C@@H](CS)C(=O)O` [NAC, N-acetyl-L-cysteine], in test [1], the “number of TIF” value was “attenuated the number of TIF”.
For the compound `CC(C)c1cc(-c2n[nH]c(=O)n2-c2ccc3c(ccn3C)c2)c(O)cc1O` [ganetespib], in [2], the “enhancement of 6-Thio-dG efficacy in spheroids” value is given as “did not enhance the efficacy of 6-Thio-dG”.
Consider Gamitrinib, for which the cell death entry in test [3] is on record as “did not induce cell death”; in test [4], 75-80%; in the test on KRAS mutant HCT116 cells, “did not induce substantial death”; in test [6], “triggered significant death”; in the test with KRAS mutant A549 cells, “did not induce substantial death”. In addition, in the test with SOD2, the SOD2 levels entry was “downregulate SOD2 levels”. Besides, in [5], the mitochondrial membrane potential result is “rapid and complete loss of mitochondrial membrane potential”. The “anti-cancer activity as a single agent” value in the test with NRAS mutant cells is reported as “limited activity”. Also, the “cell death (Annexin V/PI)” value in test [7] was “enhanced the cytotoxic effects of Gamitrinib”.
In the case of imetelstat, the activity entry in [8] is recorded as “limited activity”. Besides, the efficacy entry in test [9] was “efficacy”.

The values are drawn from patent publication US20190282600A1, “COMBINATION THERAPIES TARGETING TERT DEPENDENCY FOR CANCER THERAPY” (The Wistar Institute of Anatomy and Biology, priority 2018, published 2019).
